Results as given in US11753445B2, “Therapeutic peptides” (COHBAR, INC., priority 2016, dated 2023).
Peptide text beside a SMILES is read from it.

Test system: 3T3-L1 Adipocytes
Experiment: Free fatty acid levels in cultured mouse 3T3-L1 adipocytes, isoproterenol stimulated (Example 2)
Format: cell-based
Details: test peptides 25 μM; isoproterenol 1 nM
Summary of the method: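 3T3-L1 cells differentiated 12–17 days into adipocytes, then exposed to test peptides at 25 μM final for 18–20 h, then 1 h, then 3 h with isoproterenol (1 nM) at 37 °C. Free fatty acids in the medium measured colorimetrically at 540 nm, corrected for untreated background and expressed relative to isoproterenol-only cells.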

Compared with CC[C@H](C)[C@@H]1NC(=O)[C@H](Cc2ccc(O)cc2)NC(=O)CNC(=O)[C@@H](NC(=O)[C@H](CCC(=O)O)NC(=O)[C@H](CCC(N)=O)NC(=O)[C@H](Cc2c[nH]c3ccccc23)NC(=O)[C@H](CCCNC(=N)N)NC(=O)[C@H](CCSC)NC(C)=O)CSSC[C@@H](C(=O)N[C@@H](CCCNC(=N)N)C(=O)N[C@@H](CCCCN)C(=O)N[C@@H](CC(C)C)C(=O)N[C@@H](CCCNC(=N)N)C(N)=O)NC(=O)[C@H](Cc2ccc(O)cc2)NC(=O)[C@H](Cc2ccccc2)NC1=O [compound 225] (HELM PEPTIDE1{[ac].M.R.W.Q.E.C.G.Y.I.F.Y.C.R.K.L.R.[am]}$PEPTIDE1,PEPTIDE1,7:R3-13:R3$$$V2.0), CC[C@H](C)[C@@H]1NC(=O)[C@H](Cc2ccc(O)cc2)NC(=O)CNC(=O)[C@@H](NC(=O)[C@H](CCC(=O)O)NC(=O)[C@H](CCC(N)=O)NC(=O)[C@H](Cc2c[nH]c3ccccc23)NC(=O)[C@H](CCCNC(=N)N)NC(=O)[C@H](CCSC)NC(C)=O)CCC(=O)NCCCC[C@@H](C(=O)N[C@@H](CCCNC(=N)N)C(=O)N[C@@H](CCCCN)C(=O)N[C@@H](CC(C)C)C(=O)N[C@@H](CCCNC(=N)N)C(N)=O)NC(=O)[C@H](Cc2ccc(O)cc2)NC(=O)[C@H](Cc2ccccc2)NC1=O [compound 226] (HELM PEPTIDE1{[ac].M.R.W.Q.E.E.G.Y.I.F.Y.K.R.K.L.R.[am]}$PEPTIDE1,PEPTIDE1,7:R3-13:R3$$$V2.0) is lower in “Free Fatty Acid Levels in 3T3-L1 Adipocytes Expressed as a Percent of Isoproterenol Control: Percent of Control Value”: 97.0% for the first, 79.8% for the second.

Compared with CC[C@H](C)[C@@H]1NC(=O)[C@H](Cc2ccc(O)cc2)NC(=O)CNC(=O)[C@H](CCSC)NC(=O)[C@@H](NC(=O)[C@H](CCC(N)=O)NC(=O)[C@H](Cc2c[nH]c3ccccc23)NC(=O)[C@H](CCCNC(=N)N)NC(=O)[C@H](CCSC)NC(C)=O)CCC(=O)NCCCC[C@@H](C(=O)N[C@@H](CC(C)C)C(=O)N[C@@H](CCCNC(=N)N)C(N)=O)NC(=O)[C@H](CCCNC(=N)N)NC(=O)[C@@H]2CCCN2C(=O)[C@H](Cc2ccc(O)cc2)NC(=O)[C@H](Cc2ccccc2)NC1=O [compound 227] (HELM PEPTIDE1{[ac].M.R.W.Q.E.M.G.Y.I.F.Y.P.R.K.L.R.[am]}$PEPTIDE1,PEPTIDE1,6:R3-15:R3$$$V2.0), CC[C@H](C)[C@@H]1NC(=O)[C@H](Cc2ccc(O)cc2)NC(=O)CNC(=O)[C@H](CCSC)NC(=O)[C@H](CCC(=O)O)NC(=O)[C@@H](NC(=O)[C@H](Cc2c[nH]c3ccccc23)NC(=O)[C@H](CCCNC(=N)N)NC(=O)[C@H](CCSC)NC(C)=O)CCC(=O)NCCCC[C@@H](C(=O)N[C@@H](CCCNC(=N)N)C(=O)N[C@@H](CCCCN)C(=O)N[C@@H](CC(C)C)C(=O)N[C@@H](CCCNC(=N)N)C(N)=O)NC(=O)[C@H](Cc2ccc(O)cc2)NC(=O)[C@H](Cc2ccccc2)NC1=O [compound 228] (HELM PEPTIDE1{[ac].M.R.W.E.E.M.G.Y.I.F.Y.K.R.K.L.R.[am]}$PEPTIDE1,PEPTIDE1,5:R3-13:R3$$$V2.0) is higher in “Free Fatty Acid Levels in 3T3-L1 Adipocytes Expressed as a Percent of Isoproterenol Control: Percent of Control Value”: 24.5% for the first, 69.9% for the second.

Going from CC[C@H](C)[C@H](NC(=O)[C@H](Cc1ccc(O)cc1)NC(=O)CNC(=O)[C@H](CCC(=O)O)NC(=O)[C@H](CCC(=O)O)NC(=O)[C@H](CCC(N)=O)NC(=O)[C@H](Cc1c[nH]c2ccccc12)NC(=O)[C@H](CCCNC(=N)N)NC(=O)[C@@H](C)N)C(=O)N[C@@H](Cc1ccccc1)C(=O)N[C@@H](Cc1ccc(O)cc1)C(=O)N1CCC[C@H]1C(=O)N[C@@H](CCCNC(=N)N)C(=O)N[C@@H](CCCCN)C(=O)N[C@@H](CC(C)C)C(=O)N[C@@H](C)C(=O)O [compound 230] (HELM PEPTIDE1{[dA].R.W.Q.E.E.G.Y.I.F.Y.P.R.K.L.A}$$$$V2.0) to CC[C@H](C)[C@H](NC(=O)[C@H](Cc1ccc(O)cc1)NC(=O)CNC(=O)[C@H](CCC(=O)O)NC(=O)[C@H](CCC(=O)O)NC(=O)[C@H](CCC(N)=O)NC(=O)[C@H](Cc1c[nH]c2ccccc12)NC(=O)[C@H](CCCNC(=N)N)NC(=O)[C@@H](C)N)C(=O)N[C@@H](Cc1ccccc1)C(=O)N[C@@H](Cc1ccc(O)cc1)C(=O)N1CCC[C@H]1C(=O)N[C@@H](CCCNC(=N)N)C(=O)N[C@@H](CCCCN)C(=O)N[C@@H](CC(C)C)C(=O)N[C@H](C)C(=O)O [compound 231] (HELM PEPTIDE1{[dA].R.W.Q.E.E.G.Y.I.F.Y.P.R.K.L.[dA]}$$$$V2.0), the “Free Fatty Acid Levels in 3T3-L1 Adipocytes Expressed as a Percent of Isoproterenol Control: Percent of Control Value” falls from 94.5% to 61.6%.

Going from CC[C@H](C)[C@H](NC(=O)[C@H](Cc1ccc(O)cc1)NC(=O)CNC(=O)[C@H](CCC(=O)O)NC(=O)[C@H](CCC(=O)O)NC(=O)[C@H](CCC(N)=O)NC(=O)[C@H](Cc1c[nH]c2ccccc12)NC(=O)[C@H](CCCNC(=N)N)NC(=O)[C@@H](C)N)C(=O)N[C@@H](Cc1ccccc1)C(=O)N[C@@H](Cc1ccc(O)cc1)C(=O)N1CCC[C@H]1C(=O)N[C@@H](CCCNC(=N)N)C(=O)O [compound 232] (HELM PEPTIDE1{[dA].R.W.Q.E.E.G.Y.I.F.Y.P.R}$$$$V2.0) to CC[C@H](C)[C@H](NC(=O)[C@H](Cc1ccc(O)cc1)NC(=O)CNC(=O)[C@H](CCC(=O)O)NC(=O)[C@H](CCC(=O)O)NC(=O)[C@H](CCC(N)=O)NC(=O)[C@H](Cc1c[nH]c2ccccc12)NC(=O)[C@H](CCCNC(=N)N)NC(=O)[C@@H](C)N)C(=O)N[C@@H](C)C(=O)N[C@@H](Cc1ccc(O)cc1)C(=O)N1CCC[C@H]1C(=O)N[C@@H](CCCNC(=N)N)C(=O)O [compound 238] (HELM PEPTIDE1{[dA].R.W.Q.E.E.G.Y.I.A.Y.P.R}$$$$V2.0), the “Free Fatty Acid Levels in 3T3-L1 Adipocytes Expressed as a Percent of Isoproterenol Control: Percent of Control Value” rises from 46.5% to 52.9%.

Compared with CC[C@H](C)[C@H](NC(=O)[C@H](Cc1ccc(O)cc1)NC(=O)CNC(=O)[C@H](C)NC(=O)[C@H](CCC(=O)O)NC(=O)[C@H](CCC(N)=O)NC(=O)[C@H](Cc1c[nH]c2ccccc12)NC(=O)[C@H](CCCNC(=N)N)NC(=O)[C@@H](N)CCC(=O)O)C(=O)N[C@@H](Cc1ccccc1)C(=O)N[C@@H](Cc1ccc(O)cc1)C(=O)N1CCC[C@H]1C(=O)N[C@@H](CCCNC(=N)N)C(=O)N[C@@H](CCCCN)C(=O)N[C@@H](CC(C)C)C(=O)N[C@H](C)C(=O)O [compound 234] (HELM PEPTIDE1{E.R.W.Q.E.A.G.Y.I.F.Y.P.R.K.L.[dA]}$$$$V2.0), CC[C@H](C)[C@H](NC(=O)[C@H](Cc1ccc(O)cc1)NC(=O)CNC(=O)[C@H](C)NC(=O)[C@H](CCC(=O)O)NC(=O)[C@H](CCC(N)=O)NC(=O)[C@H](Cc1c[nH]c2ccccc12)NC(=O)[C@H](CCCNC(=N)N)NC(=O)[C@@H](N)CCC(=O)O)C(=O)N[C@@H](C)C(=O)N[C@@H](Cc1ccc(O)cc1)C(=O)N1CCC[C@H]1C(=O)N[C@@H](CCCNC(=N)N)C(=O)N[C@@H](CCCCN)C(=O)N[C@@H](CC(C)C)C(=O)N[C@H](C)C(=O)O [compound 240] (HELM PEPTIDE1{E.R.W.Q.E.A.G.Y.I.A.Y.P.R.K.L.[dA]}$$$$V2.0) is lower in “Free Fatty Acid Levels in 3T3-L1 Adipocytes Expressed as a Percent of Isoproterenol Control: Percent of Control Value”: 73.8% for the first, 48.6% for the second.

Compared with CC[C@H](C)[C@H](NC(=O)[C@H](Cc1ccc(O)cc1)NC(=O)CNC(=O)[C@H](CCC(=O)O)NC(=O)[C@H](CCC(=O)O)NC(=O)[C@H](CCC(N)=O)NC(=O)[C@H](Cc1c[nH]c2ccccc12)NC(=O)[C@H](CCCNC(=N)N)NC(=O)[C@@H](C)N)C(=O)N[C@@H](C)C(=O)N[C@@H](Cc1ccc(O)cc1)C(=O)N1CCC[C@H]1C(=O)N[C@@H](CCCNC(=N)N)C(=O)N[C@@H](CCCCN)C(=O)N[C@@H](CC(C)C)C(=O)N[C@@H](C)C(=O)O [compound 236] (HELM PEPTIDE1{[dA].R.W.Q.E.E.G.Y.I.A.Y.P.R.K.L.A}$$$$V2.0), CC[C@H](C)[C@H](NC(=O)[C@H](Cc1ccc(O)cc1)NC(=O)CNC(=O)[C@H](CCC(=O)O)NC(=O)[C@H](CCC(=O)O)NC(=O)[C@H](CCC(N)=O)NC(=O)[C@H](Cc1c[nH]c2ccccc12)NC(=O)[C@H](CCCNC(=N)N)NC(=O)[C@@H](C)N)C(=O)N[C@@H](C)C(=O)N[C@@H](Cc1ccc(O)cc1)C(=O)N1CCC[C@H]1C(=O)N[C@@H](CCCNC(=N)N)C(=O)N[C@@H](CCCCN)C(=O)N[C@@H](CC(C)C)C(=O)N[C@H](C)C(=O)O [compound 237] (HELM PEPTIDE1{[dA].R.W.Q.E.E.G.Y.I.A.Y.P.R.K.L.[dA]}$$$$V2.0) is higher in “Free Fatty Acid Levels in 3T3-L1 Adipocytes Expressed as a Percent of Isoproterenol Control: Percent of Control Value”: 74.8% for the first, 85.6% for the second.

Compared with CC[C@H](C)[C@H](NC(=O)[C@H](Cc1ccc(O)cc1)NC(=O)CNC(=O)[C@H](C)NC(=O)[C@H](CCC(=O)O)NC(=O)[C@H](CCC(N)=O)NC(=O)[C@H](Cc1c[nH]c2ccccc12)NC(=O)[C@H](CCCNC(=N)N)NC(=O)[C@@H](C)N)C(=O)N[C@@H](Cc1ccccc1)C(=O)N[C@@H](CCC(=O)O)C(=O)N1CCC[C@H]1C(=O)N[C@@H](CCCNC(=N)N)C(=O)N[C@@H](CCCCN)C(=O)N[C@@H](CC(C)C)C(=O)N[C@@H](C)C(=O)O [compound 242] (HELM PEPTIDE1{[dA].R.W.Q.E.A.G.Y.I.F.E.P.R.K.L.A}$$$$V2.0), CC[C@H](C)[C@H](NC(=O)[C@H](Cc1ccc(O)cc1)NC(=O)CNC(=O)[C@H](C)NC(=O)[C@H](CCC(=O)O)NC(=O)[C@H](CCC(N)=O)NC(=O)[C@H](Cc1c[nH]c2ccccc12)NC(=O)[C@H](CCCNC(=N)N)NC(=O)[C@@H](C)N)C(=O)N[C@@H](Cc1ccccc1)C(=O)N[C@@H](CCC(=O)O)C(=O)N1CCC[C@H]1C(=O)N[C@@H](CCCNC(=N)N)C(=O)N[C@@H](CCCCN)C(=O)N[C@@H](CC(C)C)C(=O)N[C@H](C)C(=O)O [compound 243] (HELM PEPTIDE1{[dA].R.W.Q.E.A.G.Y.I.F.E.P.R.K.L.[dA]}$$$$V2.0) is higher in “Free Fatty Acid Levels in 3T3-L1 Adipocytes Expressed as a Percent of Isoproterenol Control: Percent of Control Value”: 64.9% for the first, 82.3% for the second.
